Experimental data taken from patent US20150291598A1 (NOVARTIS AG, priority 2012, published 2015).

test system: P. falciparum (NF54 or 3D7 strain); test: Assay for P. falciparum proliferation in infected human blood cells (SYBR Green); type: cell-based, Plasmodium falciparum; conditions: Plasmodium falciparum, Erythrocyte, 72 h, NF54 or 3D7 infected human erythrocytes, 72 hours; read-out: EC50 (nM), inhibitory efficacy in delaying P. falciparum proliferation in infected human blood cells
In short: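 NF54 or 3D7 parasites in O+ human erythrocytes at 2.5% hematocrit and 0.3% parasitemia final, exposed to compounds 72 h at 37 °C under 93% N2/4% CO2/3% O2.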

| Compound | EC50 [nM] |
| --- | --- |
| CN(C(=O)c1cn2c(-c3cccc(F)n3)cnc2cn1)c1ccc(C#N)cc1 [Compound 351, N-(4-cyanophenyl)-3-(6-fluoropyridin-2-yl)-N-methylimidazo[1,2-a]pyrazine-6-carboxamide] | 5620 |
| CN(C(=O)c1cn2c(-c3ccc(OC(C)(C)C(N)=O)cc3)cnc2cn1)c1ccc(C#N)cc1 [Compound 352, 3-[4-(1-carbamoyl-1-methylethoxy)phenyl]-N-(4-cyanophenyl)-N-methylimidazo[1,2-a]pyrazine-6-carboxamide] | 876 |
| CN(C(=O)c1cn2c(-c3ncccc3Cl)cnc2cn1)c1ccc(C#N)cc1 [Compound 354, 3-(3-chloropyridin-2-yl)-N-(4-cyanophenyl)-N-methylimidazo[1,2-a]pyrazine-6-carboxamide] | 6070 |
| CN(C)c1ccc(-c2cnc3cnc(C(=O)N(C)c4ccc(Cl)nc4)cn23)cn1 [Compound 357, N-(6-chloropyridin-3-yl)-3-[6-(dimethylamino)pyridin-3-yl]-N-methylimidazo[1,2-a]pyrazine-6-carboxamide] | 5490 |
| CN(C(=O)c1cn2c(-c3ccc4c(c3)OCCO4)cnc2cn1)c1ccc(Cl)nc1 [Compound 360, N-(6-chloropyridin-3-yl)-3-(2,3-dihydro-1,4-benzodioxin-6-yl)-N-methylimidazo[1,2-a]pyrazine-6-carboxamide] | > 4570 |
| CC(C)S(=O)(=O)Nc1ccc(-c2cnc3cnc(C(=O)N(C)c4ccc(C#N)cc4)cn23)cc1 [Compound 363, N-(4-cyanophenyl)-N-methyl-3-[4-(propane-2-sulfonamido)phenyl]imidazo[1,2-a]pyrazine-6-carboxamide] | 7020 |

Further lines, results first:

| EC50 [nM] | Compound |
| --- | --- |
| > 5630 | CC1(C)CN(C(=O)c2cn3c(-c4ccc(C(F)(F)F)cc4)cnc3cn2)c2ccc(C#N)cc2O1 [Compound 350, 2,2-dimethyl-4-({3-[4-(trifluoromethyl)phenyl]imidazo[1,2-a]pyrazin-6-yl}carbonyl)-3,4-dihydro-2H-1,4-benzoxazine-7-carbonitrile] |
| 3900 | COc1ccc(N(C)C(=O)c2cn3c(-c4ccc(C(F)(F)F)cc4)cnc3cn2)nc1 [Compound 353, N-(5-methoxypyridin-2-yl)-N-methyl-3-[4-(trifluoromethyl)phenyl]imidazo[1,2-a]pyrazine-6-carboxamide] |
| 2120 | CN(C(=O)c1cn2c(-c3ccc(C(F)(F)F)cc3)cnc2cn1)c1cncc(Cl)c1 [Compound 355, N-(5-chloropyridin-3-yl)-N-methyl-3-[4-(trifluoromethyl)phenyl]imidazo[1,2-a]pyrazine-6-carboxamide] |
| 6680 | CN(C(=O)c1cn2c(-c3ccc(C(F)(F)F)cc3)cnc2cn1)c1nccs1 [Compound 356, N-methyl-N-(1,3-thiazol-2-yl)-3-[4-(trifluoromethyl)phenyl]imidazo[1,2-a]pyrazine-6-carboxamide] |
| 1170 | COc1ccnc(N(C)C(=O)c2cn3c(-c4ccc(C(F)(F)F)cc4)cnc3cn2)c1 [Compound 358, -(4-methoxypyridin-2-yl)-N-methyl-3-[4-(trifluoromethyl)phenyl]imidazo[1,2-a]pyrazine-6-carboxamide] |
| > 10000 | COC[C@@H]1CCCN1c1ccc(N(C)C(=O)c2cn3c(-c4ccc(C(F)(F)F)cc4)cnc3cn2)cn1 [Compound 359, N-{6-[(2S)-2-(methoxymethyl)pyrrolidin-1-yl]pyridin-3-yl}-N-methyl-3-[4-(trifluoromethyl)phenyl]imidazo[1,2-a]pyrazine-6-carboxamide] |
| 5150 | CC(=O)Nc1ccc(-c2cnc3cnc(C(=O)N(C)c4ccc(C)cn4)cn23)cc1 [Compound 361, 3-(4-acetamidophenyl)-N-methyl-N-(5-methylpyridin-2-yl)imidazo[1,2-a]pyrazine-6-carboxamide] |
| 6470 | N#Cc1ccc(CNC(=O)c2cn3c(-c4ccc(C(F)(F)F)cc4)cnc3cn2)cc1 [Compound 362, -[(4-cyanophenyl)methyl]-3-[4-(trifluoromethyl)phenyl]imidazo[1,2-a]pyrazine-6-carboxamide] |
